Laboratory results from patent US8232243B2, “Tyrosine- and tryptophan-containing peptides as antioxidants” (Max-Planck-Gesellschaft zur Forderung der Wissenschaften …, priority 1999, dated 2012).
No end group written: not given here.

Assays:
Format in all cases: biochemical
[1] = tested on: B-phycoerythrin from Porphyrium cruentum; assay: peroxy free radical trapping test (protection of B-phycoerythrin from destruction by peroxy free radicals); details: B-phycoerythrin 10 nM, 2,2'-azobis-2-methylpropionamidine 500 μM, 37° C.; peptide 20 nM to 20 μM
Protocol: The ability of peptides to protect the globular protein B-phycoerythrin from destruction by peroxy free radicals was tested. This was done by oxidizing B-phycoerythrin from Porphyrium cruentum (10 nM) in phosphate-buffered saline solution using 2,2′-azobis-2-methylpropionamidine (500 μM) at 37° C. as source of peroxy free radicals. Destruction of the protein was measured by observing the decrease in the protein fluorescence with increasing incubation time (flash fluorimetry, excitation window 340±50 nm, emission window 572±6 nm) . The results of this experiment for the secretory peptides GnRH (human) and for the synthetic peptides WY, WGGGY, WW and YY are shown in FIG. 1A. The meanings in the individual diagrams are • the control and ⋄ a concentration of 20 nM, ∘ 200 nM, ▾ 2 μM and ∇ 20 μM of the particular peptide (quadruplicate determinations) .
The results are shown in FIG. 2. • means the control, ∘ means a concentration of 200 nM, ▾ means a concentration of 2 μM and ∇ means a concentration of 20 μM of the particular peptide (quadruplicate determinations).
Experiments were carried out to test the antioxidant effect of other substances in the peroxy free radical trapping test described in example 1. The results are shown in FIG. 3 (see FIG. 1A for explanation) .

human LDL = assay: protection of LDL from copper-catalyzed oxidation (conjugated dienes, 234 nm); details: LDL 0.1 mg/ml protein, 10 μM CuSO4, 37° C.; peptide 20 μM and 100 μM
Protocol: In a further test, the ability of the peptides to protect LDL from copper-catalyzed oxidation was tested. This was done by incubating fresh human LDL (0.1 mg/ml protein) with 10 μM CuSO4 at 37° C. The reaction products of the LDL decomposition (conjugated dienes) were measured by photometry at 234 nm as described by Moosmann and Behl (Proc. Natl. Acad. Sci. USA 96 (1999), 8867). The three curves show the control, a concentration of 20 μM and a concentration of 100 μM of the particular peptide (duplicate determinations).

[2] = tested on: native rat brain membranes; assay: protection of brain membranes from oxidative damage by ascorbate (lipid peroxidation, chemiluminescence); details: membranes 0.5 mg/ml protein, 50 μM ascorbate, 37° C.; peptide 20 μM and 100 μM
Protocol: Secretory peptides are able to protect brain membranes from oxidative damage by ascorbate. This was done by oxidizing native rat brain membranes (0.5 mg/ml protein) by adding 50 μM ascorbate at 37° C. Single-photon measurement of the chemiluminescence (as measure of peroxidation reactions occurring) was measured for quantitative determination of the lipid peroxidation as described by Moosmann and Behl (supra). The results for GnRH (human) are shown in FIG. 1C. • means the control and ⋄ a concentration of 20 μM and ▪ a concentration of 100 μM of the particular peptide (duplicate determinations).

Question: Which “antioxidant effect in trapping peroxy free radicals (decrease in B-phycoerythrin fluorescence)” value [1] does the source give for “cyEHWSYGWLPG-amide (HELM PEPTIDE1{[Glp].H.W.S.Y.G.W.L.P.G.[am]}$$$$V2.0; SMILES CC(C)C[C@H](NC(=O)[C@H](Cc1c[nH]c2ccccc12)NC(=O)CNC(=O)[C@H](Cc1ccc(O)cc1)NC(=O)[C@H](CO)NC(=O)[C@H](Cc1c[nH]c2ccccc12)NC(=O)[C@H](Cc1c[nH]cn1)NC(=O)[C@@H]1CCC(=O)N1)C(=O)N1CCC[C@H]1C(=O)NCC(N)=O; listed as Oncorhynchus tshawytscha) [GnRH (salmon)]” here?
Answer: Its value is “Analogous results”.

Question: How did the “antioxidant effect in trapping peroxy free radicals (decrease in B-phycoerythrin fluorescence)” value [1] turn out when “cyEHWSYGLRPG-amide (N-terminal pyroglutamate, C-terminal amide; listed as Homo Sapiens) [GnRH (human)]” was run?
Answer: The value was “have antioxidant properties”.

Question: And the “antioxidant effect in preventing LDL oxidation” value (human LDL)?
Answer: Its value is “have antioxidant properties”.

Question: And the “antioxidant effect in preventing peroxidation of brain lipids” value [2]?
Answer: Its value is “have antioxidant properties”.

Question: Which “antioxidant effect in trapping peroxy free radicals (decrease in B-phycoerythrin fluorescence)” value [1] does the source give for “cyEHWSHDWKPG-amide (N-terminal pyroglutamate, C-terminal amide; listed as Petromyzon marinus) [GnRH (lamprey)]” here?
Answer: The value was “Analogous results”.

Question: “SYGLRPG-amide (SYGLRPG-NH2; listed as Homo sapiens) [GnRH 4-10]” was tested. Which “antioxidant effect in trapping peroxy free radicals (decrease in B-phycoerythrin fluorescence)” value [1] did it give?
Answer: The value was “markedly reduced”.

Question: For “LRPG-amide (LRPG-NH2; listed as Homo sapiens) [GnRH 7-10]”, which “antioxidant effect in trapping peroxy free radicals (decrease in B-phycoerythrin fluorescence)” value [1] is on record?
Answer: The value was “complete loss of activity”.

Question: “WGGY (A synthetic peptide which functions as an antioxidant)” was tested. Which “antioxidant effect in trapping peroxy free radicals (decrease in B-phycoerythrin fluorescence)” value [1] did it give?
Answer: The value was “Analogous results”.

Question: How did the “antioxidant effect in trapping peroxy free radicals (decrease in B-phycoerythrin fluorescence)” value [1] turn out when WGY was run?
Answer: Its value is “Analogous results”.
